# Data reported in PubChem BioAssay AID248 (DTP/NCI, 2004).
# Values joined by “and” are separate entries in the source; they are usually repeats but may differ in a detail not shown here. Equal values may be shown once. Inconclusive results and toxic doses are left out.
# System: L1210 leukemia ip in BDF1 mice, survival T/C
# Assay: NCI In Vivo Anticancer Drug Screen. Data for tumor model L1210 Leukemia (intraperitoneal) in B6D2F1 (BDF1) mice
# Conditions: endpoint: mean survival time, higher = longer survival
# Procedure, shortened: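 Transplantable tumor model; survival measured in treated vs vehicle control mice. Value = treated/control.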
# [1] = dose: 50.0 mg/kg/injection, schedule: Q01DX001 (ip), vehicle: carboxymethylcellulose (CMC)
# [2] = dose: 100.0 mg/kg/injection, schedule: Q01DX001 (ip), vehicle: carboxymethylcellulose (CMC)
# [3] = dose: 200.0 mg/kg/injection, schedule: Q01DX001 (ip), vehicle: carboxymethylcellulose (CMC)
# [4] = dose: 400.0 mg/kg/injection, schedule: Q01DX001 (ip), vehicle: carboxymethylcellulose (CMC)
# [5] = dose: 100.0 mg/kg/injection, schedule: Q01DX009 (ip), vehicle: Klucel (hydroxypropylcellulose) (HPC)
# [6] = dose: 200.0 mg/kg/injection, schedule: Q01DX009 (ip), vehicle: Klucel (hydroxypropylcellulose) (HPC)
# [7] = dose: 400.0 mg/kg/injection, schedule: Q01DX009 (ip), vehicle: Klucel (hydroxypropylcellulose) (HPC)
# [8] = dose: 100.0 mg/kg/injection, schedule: Q04DX003 (ip), vehicle: saline
# [9] = dose: 100.0 mg/kg/injection, schedule: Q01DX009 (ip), vehicle: saline with Tween-80
# [10] = dose: 100.0 mg/kg/injection, schedule: Q04DX003 (ip), vehicle: saline with Tween-80
# [11] = dose: 200.0 mg/kg/injection, schedule: Q01DX009 (ip), vehicle: saline with Tween-80
# [12] = dose: 200.0 mg/kg/injection, schedule: Q04DX003 (ip), vehicle: saline with Tween-80
# [13] = dose: 400.0 mg/kg/injection, schedule: Q01DX009 (ip), vehicle: saline with Tween-80
# [14] = dose: 400.0 mg/kg/injection, schedule: Q04DX003 (ip), vehicle: saline with Tween-80
# [15] = dose: 100.0 mg/kg/injection, schedule: Q01DX001 (ip), vehicle: saline
# [16] = dose: 200.0 mg/kg/injection, schedule: Q01DX001 (ip), vehicle: saline
smiles,measurement,setting,value
Nc1cccc2c1ccc1ccc3ccccc3c12,T/C,"dose: 100.0 mg/kg/injection, schedule: Q01DX001 (ip), vehicle: Klucel (hydroxypropylcellulose) (HPC)",103 % of control
same,T/C,"dose: 200.0 mg/kg/injection, schedule: Q01DX001 (ip), vehicle: Klucel (hydroxypropylcellulose) (HPC)",101 % of control
same,T/C,"dose: 400.0 mg/kg/injection, schedule: Q01DX001 (ip), vehicle: Klucel (hydroxypropylcellulose) (HPC)",108 % of control
CC1(C)c2ccccc2C(C)(C(Cl)(Cl)Cl)c2ccc(Cl)cc21 (stereo not drawn),T/C,[1],98 % of control
same,T/C,[2],90 % of control
same,T/C,"dose: 100.0 mg/kg/injection, schedule: Q01DX009 (ip), vehicle: saline",92 % of control
same,T/C,[3],93 % of control
same,T/C,"dose: 200.0 mg/kg/injection, schedule: Q01DX009 (ip), vehicle: saline",95 % of control
same,T/C,[4],95 % of control
same,T/C,"dose: 400.0 mg/kg/injection, schedule: Q01DX009 (ip), vehicle: saline",97 % of control
Cc1cc(NC(=O)NCCCCCCNC(=O)Nc2cc(C)on2)no1,T/C,"dose: 100.0 mg/kg/injection, schedule: Q01DX009 (ip), vehicle: other",89 % of control
same,T/C,"dose: 200.0 mg/kg/injection, schedule: Q01DX009 (ip), vehicle: other",111 % of control
same,T/C,"dose: 400.0 mg/kg/injection, schedule: Q01DX009 (ip), vehicle: other",100 % of control
COc1ccc(/C=N/Nc2c([N+](=O)[O-])cc(C)cc2[N+](=O)[O-])cc1,T/C,[5],102 % of control
same,T/C,[6],100 % of control
same,T/C,[7],100 % of control
O=C(Nc1ccc(NC(=O)OCc2ccccc2)c(Cl)c1)OCc1ccccc1,T/C,"dose: 75.0 mg/kg/injection, schedule: Q01DX001 (ip), vehicle: Klucel (hydroxypropylcellulose) (HPC)",93 % of control
same,T/C,"dose: 75.0 mg/kg/injection, schedule: Q01DX009 (ip), vehicle: Klucel (hydroxypropylcellulose) (HPC)",92 % of control
same,T/C,"dose: 150.0 mg/kg/injection, schedule: Q01DX001 (ip), vehicle: Klucel (hydroxypropylcellulose) (HPC)",95 % of control
same,T/C,"dose: 150.0 mg/kg/injection, schedule: Q01DX009 (ip), vehicle: Klucel (hydroxypropylcellulose) (HPC)",94 % of control
same,T/C,"dose: 300.0 mg/kg/injection, schedule: Q01DX001 (ip), vehicle: Klucel (hydroxypropylcellulose) (HPC)",95 % of control
same,T/C,"dose: 300.0 mg/kg/injection, schedule: Q01DX009 (ip), vehicle: Klucel (hydroxypropylcellulose) (HPC)",94 % of control
O=C(OC(=O)C1CC1)C1CC1,T/C,"dose: 12.5 mg/kg/injection, schedule: Q01DX009 (ip), vehicle: saline",96 % of control
same,T/C,"dose: 25.0 mg/kg/injection, schedule: Q01DX009 (ip), vehicle: saline",92 % of control
same,T/C,"dose: 25.0 mg/kg/injection, schedule: Q04DX003 (ip), vehicle: saline",90 % of control
same,T/C,"dose: 50.0 mg/kg/injection, schedule: Q01DX009 (ip), vehicle: saline",96 % of control and 111 % of control
same,T/C,"dose: 50.0 mg/kg/injection, schedule: Q04DX003 (ip), vehicle: saline",88 % of control
same,T/C,[8],96 % of control and 101 % of control
CCCC(F)C(=O)OCC (stereo not drawn),T/C,[9],108 % of control
same,T/C,[10],98 % of control
same,T/C,[11],94 % of control
same,T/C,[12],96 % of control
same,T/C,[13],87 % of control
same,T/C,[14],106 % of control
COc1cccc(Oc2c(O)c3ccc(OC)cc3oc2=O)c1,T/C,[15],100 % of control
same,T/C,[16],97 % of control
same,T/C,"dose: 400.0 mg/kg/injection, schedule: Q01DX001 (ip), vehicle: saline",97 % of control
S=c1sc2ccccc2n1CCNc1ccccc1,T/C,[1],96 % of control
same,T/C,[2],100 % of control
same,T/C,[3],100 % of control
same,T/C,[4],89 % of control
CCCCCCCCCCCCCCCCCC[N+]1(C)CCOCC1,T/C,"dose: 6.25 mg/kg/injection, schedule: Q01DX009 (ip), vehicle: Klucel (hydroxypropylcellulose) (HPC)",94 % of control
same,T/C,"dose: 12.5 mg/kg/injection, schedule: Q01DX009 (ip), vehicle: Klucel (hydroxypropylcellulose) (HPC)",100 % of control
same,T/C,"dose: 25.0 mg/kg/injection, schedule: Q01DX009 (ip), vehicle: Klucel (hydroxypropylcellulose) (HPC)",97 % of control
O=C(O)CS(=O)(=O)c1ccccc1,T/C,[8],95 % of control
same,T/C,"dose: 200.0 mg/kg/injection, schedule: Q04DX003 (ip), vehicle: saline",105 % of control
CN(CCCl)Cc1ccc(-c2c3ccccc3cc3c2ccc2ccccc23)cc1,T/C,"dose: 25.0 mg/kg/injection, schedule: Q01DX001 (ip), vehicle: carboxymethylcellulose (CMC)",97 % of control
same,T/C,[1],89 % of control
same,T/C,[2],92 % of control
CC(=O)CC(=O)NC(C)CCc1ccccc1 (stereo not drawn),T/C,[9],92 % of control
same,T/C,[10],98 % of control
same,T/C,[11],92 % of control
same,T/C,[12],102 % of control
same,T/C,[13],104 % of control
same,T/C,[14],98 % of control
CC(=O)N(C)c1ccc(NC(=O)Nc2ccccc2C(F)(F)F)cc1,T/C,[5],95 % of control
same,T/C,[6],93 % of control
same,T/C,[7],103 % of control
Cc1cccc[c]1[Sb]([c]1ccccc1C)[c]1ccccc1C,T/C,"dose: 100.0 mg/kg/injection, schedule: Q04DX002 (ip), vehicle: saline with Tween-80",100 % of control
same,T/C,"dose: 200.0 mg/kg/injection, schedule: Q04DX002 (ip), vehicle: saline with Tween-80",96 % of control
same,T/C,"dose: 400.0 mg/kg/injection, schedule: Q04DX002 (ip), vehicle: saline with Tween-80",96 % of control
O=C(Nc1ccc(S(=O)(=O)c2ccc(NC(=O)C(F)(F)N3CCOCC3)cc2)cc1)C(F)(F)N1CCOCC1,T/C,[2],103 % of control
same,T/C,[3],97 % of control
same,T/C,[4],103 % of control
CCOC(OCC)c1nc(NC(C)=O)[nH]c(=O)c1CCCCc1ccccc1,T/C,"dose: 200.0 mg/kg/injection, schedule: Q01DX001 (ip), vehicle: saline with Tween-80",88 % of control
same,T/C,"dose: 400.0 mg/kg/injection, schedule: Q01DX001 (ip), vehicle: saline with Tween-80",91 % of control
COC1OC2COC(c3ccccc3)OC2C(OC)C1O (stereo not drawn),T/C,"dose: 12.5 mg/kg/injection, schedule: Q04DX002 (ip), vehicle: Klucel (hydroxypropylcellulose) (HPC)",103 % of control
same,T/C,"dose: 25.0 mg/kg/injection, schedule: Q04DX002 (ip), vehicle: Klucel (hydroxypropylcellulose) (HPC)",100 % of control
same,T/C,"dose: 50.0 mg/kg/injection, schedule: Q04DX002 (ip), vehicle: Klucel (hydroxypropylcellulose) (HPC)",100 % of control
COc1cc2ccnc(/C=N\NC(N)=S)c2cc1OC,T/C,"dose: 50.0 mg/kg/injection, schedule: Q01DX001 (ip), vehicle: saline",93 % of control
same,T/C,[15],98 % of control
same,T/C,[16],93 % of control
O=C(Nc1ccc(NC(=O)Nc2cccc(C3=NCCCN3)c2)cc1)Nc1cccc(C2=NCCCN2)c1,T/C,"dose: 6.25 mg/kg/injection, schedule: Q01DX Z (ip), vehicle: carboxymethylcellulose (CMC)",101 % of control
same,T/C,"dose: 8.0 mg/kg/injection, schedule: Q01DX Z (oral), vehicle: carboxymethylcellulose (CMC)",104 % of control
same,T/C,"dose: 12.5 mg/kg/injection, schedule: Q01DX Z (ip), vehicle: carboxymethylcellulose (CMC)",102 % of control
same,T/C,"dose: 16.0 mg/kg/injection, schedule: Q01DX Z (oral), vehicle: carboxymethylcellulose (CMC)",95 % of control
same,T/C,"dose: 31.0 mg/kg/injection, schedule: Q01DX Z (oral), vehicle: carboxymethylcellulose (CMC)",97 % of control
same,T/C,"dose: 50.0 mg/kg/injection, schedule: Q01DX Z (ip), vehicle: carboxymethylcellulose (CMC)",157 % of control
same,T/C,"dose: 62.0 mg/kg/injection, schedule: Q01DX Z (oral), vehicle: carboxymethylcellulose (CMC)",103 % of control
same,T/C,"dose: 125.0 mg/kg/injection, schedule: Q01DX Z (oral), vehicle: carboxymethylcellulose (CMC)",106 % of control
same,T/C,"dose: 250.0 mg/kg/injection, schedule: Q01DX Z (oral), vehicle: carboxymethylcellulose (CMC)",105 % of control
same,T/C,"dose: 500.0 mg/kg/injection, schedule: Q01DX Z (oral), vehicle: carboxymethylcellulose (CMC)",106 % of control
COc1ccc(OC)c(/C=C/C(=O)n2cnc3c(N)ncnc32)c1,T/C,[10],93 % of control
same,T/C,[12],93 % of control
same,T/C,[14],88 % of control
CN1C(=O)NC(=O)C1c1ccccc1 (stereo not drawn),T/C,"dose: 100.0 mg/kg/injection, schedule: Q04DX002 (ip), vehicle: saline",117 % of control
same,T/C,"dose: 200.0 mg/kg/injection, schedule: Q04DX002 (ip), vehicle: saline",106 % of control
same,T/C,"dose: 400.0 mg/kg/injection, schedule: Q04DX002 (ip), vehicle: saline",106 % of control
